Here are results for six compounds from ChEMBL document CHEMBL3091380, “Dibenzoyl and isoflavonoid glycosides from Sophora flavescens: inhibition of the cytotoxic effect of D-galactosamine on human hepatocyte HL-7702” (2013).

Assay [1] in a line: Hepatoprotective activity in human HL-7702 cells assessed as inhibition of D-galactosamine-induced toxicity at 1x10'-5 M by MTT assay relative to control. It counts as functional. To be noted: L02. For orientation: Tetrazolium assays rely on reduction of a dye to a coloured formazan, in cell work by metabolically active cells.
A further assay has as its system L02. Kind of assay: Hepatoprotective activity against D-galactosamine-induced toxicity in human HL-7702 cells assessed as survival rate at 1x10'-5 M by MTT assay relative to normal cell. It counts as functional. To be noted: read-out: Survival.

The inhibition is the percentage by which the read-out fell short of the control. As for `COc1ccc(C(=O)C(=O)c2ccc(O[C@@H]3O[C@H](CO[C@@H]4OC[C@@H](O)[C@H](O)[C@H]4O)[C@@H](O)[C@H](O)[C@H]3O)cc2O)cc1O`, in assay [1], the inhibition at 10 µM was 27.1%. For the same compound, the viability at 10 µM in the assay with L02 is 61.3%.
For `COc1ccc(C(=O)C(=O)c2ccc(O[C@@H]3O[C@H](CO[C@@H]4OC[C@](O)(CO)[C@H]4O)[C@@H](O)[C@H](O)[C@H]3O)cc2O)cc1O`, in that order: 52.4% and 74.7%.
On the same counts, the results for `COc1ccc(-c2coc3cc(O[C@@H]4O[C@H](CO[C@@H]5OC[C@](O)(CO)[C@H]5O)[C@@H](O)[C@H](O)[C@H]4O)ccc3c2=O)cc1O` are 36.6% and 66.3%.
On the same counts, the results for `COc1cc(-c2coc3cc(O[C@@H]4O[C@H](CO[C@@H]5OC[C@@H](O)[C@H](O)[C@H]5O)[C@@H](O)[C@H](O)[C@H]4O)ccc3c2=O)ccc1O` are 45.8% and 71.2%.
As for `COc1ccc(-c2coc3cc(O[C@@H]4O[C@H](CO[C@@H]5OC[C@@H](O)[C@H](O)[C@H]5O)[C@@H](O)[C@H](O)[C@H]4O)ccc3c2=O)cc1O`, in assay [1], the inhibition at 10 µM was 46.3%. For the same compound, the viability at 10 µM with L02 came out at 71.5%.
For `COC(=O)c1cc(OC)c2c(c1-c1c(CO)cc(OC)c3c1OCO3)OCO2` [BICYCLOL], in that order: 29.4% and 62.5%.
